Drawing on US20100120717A1, “KINASE INHIBITORS” (priority 2006, published 2010), this text covers IC50 for 25 molecules.

pIC50: −log10 of the molar value. Some results are limits rather than exact numbers.

Sequence of Aurora B/INCENP (Q96GD4 whole entry): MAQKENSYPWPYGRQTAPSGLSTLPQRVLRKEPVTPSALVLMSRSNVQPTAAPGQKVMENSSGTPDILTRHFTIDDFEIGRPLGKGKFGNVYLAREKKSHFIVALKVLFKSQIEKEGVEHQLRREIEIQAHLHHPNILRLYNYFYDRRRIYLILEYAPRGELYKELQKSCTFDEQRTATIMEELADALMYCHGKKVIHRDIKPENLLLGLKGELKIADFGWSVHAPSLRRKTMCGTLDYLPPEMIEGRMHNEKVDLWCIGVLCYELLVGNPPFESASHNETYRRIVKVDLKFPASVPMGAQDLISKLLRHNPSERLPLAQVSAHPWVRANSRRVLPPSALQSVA
Sequence of Aurora B/INCENP (Q9NQS7 whole entry partner): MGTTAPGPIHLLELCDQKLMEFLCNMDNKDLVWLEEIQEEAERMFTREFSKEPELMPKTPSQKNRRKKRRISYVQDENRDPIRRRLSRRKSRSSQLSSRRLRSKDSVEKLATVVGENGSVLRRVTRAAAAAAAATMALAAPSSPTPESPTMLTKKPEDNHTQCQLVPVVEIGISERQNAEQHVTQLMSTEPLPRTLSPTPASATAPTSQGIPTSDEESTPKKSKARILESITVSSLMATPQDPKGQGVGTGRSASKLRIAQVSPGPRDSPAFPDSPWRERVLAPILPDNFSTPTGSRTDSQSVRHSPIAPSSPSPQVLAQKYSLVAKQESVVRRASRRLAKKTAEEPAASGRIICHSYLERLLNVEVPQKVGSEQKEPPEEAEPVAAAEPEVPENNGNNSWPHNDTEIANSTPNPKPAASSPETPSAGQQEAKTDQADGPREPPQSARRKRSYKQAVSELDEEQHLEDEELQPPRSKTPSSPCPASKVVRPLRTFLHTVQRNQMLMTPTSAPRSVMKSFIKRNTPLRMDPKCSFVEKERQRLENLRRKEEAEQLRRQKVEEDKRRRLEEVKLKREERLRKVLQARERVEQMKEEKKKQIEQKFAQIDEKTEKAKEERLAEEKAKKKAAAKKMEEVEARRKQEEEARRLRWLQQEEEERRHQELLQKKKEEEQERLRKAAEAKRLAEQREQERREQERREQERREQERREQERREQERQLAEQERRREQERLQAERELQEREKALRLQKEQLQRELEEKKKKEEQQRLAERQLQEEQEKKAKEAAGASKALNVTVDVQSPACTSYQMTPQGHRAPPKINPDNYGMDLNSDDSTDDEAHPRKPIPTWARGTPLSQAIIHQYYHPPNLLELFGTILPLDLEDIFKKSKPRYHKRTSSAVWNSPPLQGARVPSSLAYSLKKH

The test addresses Aurora B/INCENP (Homo sapiens, UniProt Q96GD4). Briefly: Determination of inhibition of AIK: Aurora B/INCENP Direct Fluorescence Polarization (IMAP) assay. The class given is biochemical. The settings on record: 10 uM ATP, 0.8 nM Aurora B/INCENP, 45 min at room temperature; read-out: IC50 of Exemplified Compounds Against AIK B. The method, then:
Detection of the reaction product is performed by addition of Progressive IMAP binding reagent (Molecular Devices). Reaction product may be determined quantitatively by FP using an Analyst HT plate reader (Molecular Devices) with an excitation wavelength at 485 nm and emission at 530 nm and using a Fluorescein 505 dichroic mirror.
The assay reaction may be initiated as follows: 2 ul of (3×) 300 nM Fl-Peptide/30 uM ATP was added to each well of the plate, followed by the addition of 2 ul of (3×) inhibitor (2 fold serial dilutions for 11 data points for each inhibitor) containing 15% DMSO. Two microliters of (3×) 2.4 nM AuroraB/INCENP solution may be added to initiate the reaction (final enzyme concentration was 0.8 nM for Aurora B/INCENP). The reaction mixture may then be incubated at room temperature for 45 min, and quenched and developed by addition of 20 ul of 1 to 400 diluted Progressive IMAP binding reagent in 1× proprietary Progressive IMAP binding buffer A. Fluorescence polarization readings of the resulting reaction mixtures may be measured after a 60-minute incubation at room temperature.
IC50 values may be calculated by non-linear curve fitting of the compound concentrations and fluorescent polarization values to the standard IC50 equation.
(In fluorescence polarisation assays a small probe gives low polarisation when free and higher when bound to something large.)
Take `c1ccc(-c2cccc3[nH]c4ncccc4c23)cc1` [Compound 5, 5-phenyl-9H-pyrido[2,3-b]indole]: the pIC50 (usually −log10 of the IC50, conventionally taken in molar units) was at most 7.96.

For the molecule `CCS(=O)(=O)c1cccc(-c2ccc(C)c3[nH]c4ncc(C)cc4c23)c1` [Compound 18, 5-(3-(ethylsulfonyl)phenyl)-3,8-dimethyl-9H-pyrido[2,3-b]indole], the pIC50 was 8.00 to 8.22.

Regarding `CCS(=O)(=O)c1cccc(-c2cnc(NCCCN(C)C)c3[nH]c4ncc(C)cc4c23)c1` [Compound 41, N′-[5-(3-Ethanesulfonyl-phenyl)-3-methyl-9H-dipyrido[2,3-b;4′,3′-d]pyrrol-8-yl]-N,N-dimethyl-propane-1,3-diamine], the pIC50 was 8.00 to 8.22.

As for `CCOc1ncc(-c2cccc(S(=O)(=O)CC)c2)c2c1[nH]c1ncc(C)cc12` [Compound 51, 5-(3-Ethanesulfonyl-phenyl)-8-ethoxy-3-methyl-9H-dipyrido[2,3-b;4′,3′-d]pyrrole], the pIC50 was 8.00 to 8.22.

Take `CCS(=O)(=O)c1cccc(-c2cnc(OCCCN(C)C)c3[nH]c4ncc(C)cc4c23)c1` [Compound 52, {3-[5-(3-Ethanesulfonyl-phenyl)-3-methyl-9H-dipyrido[2,3-b;4′,3′-d]pyrrol-8-yloxy]-propyl}-dimethyl-amine]: the pIC50 was 8.00 to 8.22.

Take `CCS(=O)(=O)c1cccc(-c2cnc(OCC3CCN(C)CC3)c3[nH]c4ncc(C)cc4c23)c1` [Compound 54, 5-(3-Ethanesulfonyl-phenyl)-3-methyl-8-(1-methyl-piperidin-4-ylmethoxy)-9H-dipyrido[2,3-b;4′,3′-d]pyrrole]: the pIC50 is 8.00 to 8.22.

`CCS(=O)(=O)c1cccc(-c2cc(C(=O)NC3CCN(C)CC3)c(C)c3[nH]c4ncc(C)cc4c23)c1` [Compound 88, 5-(3-(ethylsulfonyl)phenyl)-3,8-dimethyl-N-(1-methylpiperidin-4-yl)-9H-pyrido[2,3-b]indole-7-carboxamide]: the pIC50 was 8.00 to 8.22.

As to `CCS(=O)(=O)c1cccc(-c2cc(C(=O)NCCOC)c(C)c3[nH]c4ncc(C)cc4c23)c1` [Compound 90, N-(2-(methoxy)ethyl)-5-(3-(ethylsulfonyl)phenyl)-3,8-dimethyl-9H-pyrido[2,3-b]indole-7-carboxamide], the pIC50 was 8.00 to 8.22.

For the molecule `CCS(=O)(=O)c1cccc(-c2cc(C(=O)NCCCN3CCN(C)CC3)c(C)c3[nH]c4ncc(C)cc4c23)c1` [Compound 95, 5-(3-(ethylsulfonyl)phenyl)-3,8-dimethyl-N-(3-(4-methylpiperazin-1-yl)propyl)-9H-pyrido[2,3-b]indole-7-carboxamide], the pIC50 is at most 7.96.

Regarding `CCN1CCC(NC(=O)c2cc(-c3cccc(S(=O)(=O)CC)c3)c3c([nH]c4ncc(C)cc43)c2C)CC1` [Compound 105, N-(1-ethylpiperidin-4-yl)-5-(3-(ethylsulfonyl)phenyl)-3,8-dimethyl-9H-pyrido[2,3-b]indole-7-carboxamide], the pIC50 is at most 7.96.

For `Cc1cnc2[nH]c3c(C)c(C(=O)NCCN(C)C)cc(-c4cccc(NC(=O)C5CC5)c4)c3c2c1` [Compound 112, 5-(3-(cyclopropanecarboxamido)phenyl)-N-(2-(dimethylamino)ethyl)-3,8-dimethyl-9H-pyrido[2,3-b]indole-7-carboxamide], the pIC50 was at most 7.96.

With `CCS(=O)(=O)c1cccc(-c2cc(C(=O)NCCN(C)C)c(C)c3[nH]c4ncc(C)cc4c23)c1` [Compound 113], the pIC50 is 8.00 to 8.22.

As to `CCS(=O)(=O)c1cccc(-c2cc(C(=O)NCC3CCN(C)CC3)c(C)c3[nH]c4ncc(C)cc4c23)c1` [Compound 114, 5-(3-(ethylsulfonyl)phenyl)-3,8-dimethyl-N-((1-methylpiperidin-4-yl)methyl)-9H-pyrido[2,3-b]indole-7-carboxamide], the pIC50 was at most 7.96.

For `CCS(=O)(=O)c1cccc(-c2cc(C(=O)N[C@H]3CCCN(C)C3)c(C)c3[nH]c4ncc(C)cc4c23)c1` [Compound 117, (S)-5-(3-(ethylsulfonyl)phenyl)-3,8-dimethyl-N-(1-methylpiperidin-3-yl)-9H-pyrido[2,3-b]indole-7-carboxamide], the pIC50 is at most 7.96.

As to `Cc1cnc2[nH]c3c(C)c(C(=O)NC4CCN(C)CC4)cc(-c4cccc(NC(=O)C5CC5)c4)c3c2c1` [Compound 120, 5-(3-(cyclopropanecarboxamido)phenyl)-3,8-dimethyl-N-(1-methyl-piperidin-4-yl)-9H-pyrido[2,3-b]indole-7-carboxamide], the pIC50 was 8.00 to 8.22.

Consider `CCS(=O)(=O)c1cccc(-c2cc(C(=O)NCCN(C)C)cc3[nH]c4ncc(C)cc4c23)c1` [Compound 142, 5-(3-Ethanesulfonyl-phenyl)-3-methyl-9H-pyrido[2,3-b]indole-7-carboxylic acid (2-dimethylamino-ethyl)-amide], for which the pIC50 was 8.00 to 8.22.

For the molecule `CCNS(=O)(=O)c1cccc(-c2cc(C(=O)NC3CCN(C)CC3)c(C)c3[nH]c4ncc(C)cc4c23)c1` [Compound 153], the negative-log IC50 (pIC50) was at most 7.96.

Take `Cc1cnc2[nH]c3c(C)c(C(=O)NC4CCN(C)CC4)cc(-c4cccc(S(=O)(=O)C5CC5)c4)c3c2c1` [Compound 154, 5-(3-(cyclopropylsulfonyl)phenyl)-3,8-dimethyl-N-(1-methylpiperidin-4-yl)-9H-pyrido[2,3-b]indole-7-carboxamide]: the pIC50 is 8.00 to 8.22.

`COc1ccc(-c2cccc(NC(=O)C3CC3)c2)c2c1[nH]c1ncc(C)cc12` [Compound 163, N-(3-(8-methoxy-3-methyl-9H-pyrido[2,3-b]indol-5-yl)phenyl)cyclopropanecarboxamide]: the pIC50 was at most 7.96.

On to `CCOc1ccc(-c2cccc(S(=O)(=O)CC)c2)c2c1[nH]c1ncc(C)cc12` [Compound 171, 8-ethoxy-5-(3-(ethylsulfonyl)phenyl)-3-methyl-9H-pyrido[2,3-b]indole], for which the pIC50 is 8.00 to 8.22.

For the molecule `CCS(=O)(=O)c1cccc(-c2ccc(OCC(F)(F)F)c3[nH]c4ncc(C)cc4c23)c1` [Compound 173, 5-(3-(ethylsulfonyl)phenyl)-3-methyl-8-(2,2,2-trifluoroethoxy)-9H-pyrido[2,3-b]indole], the pIC50 is at most 7.96.

Turning to `CCS(=O)(=O)c1cccc(-c2ccc(OCC3CCN(C)CC3)c3[nH]c4ncc(C)cc4c23)c1` [Compound 177, 5-(3-(ethylsulfonyl)phenyl)-3-methyl-8-((1-methylpiperidin-4-yl)methoxy)-9H-pyrido[2,3-b]indole], the pIC50 is 8.00 to 8.22.

Regarding `Cc1cnc2[nH]c3c(OCC4CCN(C)CC4)ccc(-c4cccc(C(=O)NC5CC5)c4)c3c2c1` [Compound 178, N-cyclopropyl-3-(3-methyl-8-((1-methylpiperidin-4-yl)methoxy)-9H-pyrido[2,3-b]indol-5-yl)benzamide], the pIC50 was at most 7.96.

For the molecule `Cc1cnc2[nH]c3c(OCC4CCN(C)CC4)ccc(-c4cccc(S(=O)(=O)C5CC5)c4)c3c2c1` [Compound 179, 5-(3-(cyclopropylsulfonyl)phenyl)-3-methyl-8-((1-methylpiperidin-4-yl)methoxy)-9H-pyrido[2,3-b]indole], the pIC50 is 8.00 to 8.22.

Consider `Cc1cnc2[nH]c3c(OCC4CCN(C)CC4)ccc(-c4cccc(NC(=O)C5CC5)c4)c3c2c1` [Compound 182, N-(3-(3-methyl-8-((1-methylpiperidin-4-yl)methoxy)-9H-pyrido[2,3-b]indol-5-yl)phenyl)cyclopropanecarboxamide], for which the pIC50 was 8.00 to 8.22.
